Laboratory results published in patent US20200093856A1, “Hydrogen-containing composition for ameliorating depressive symptom” (MiZ Company Limited, priority 2018, published 2020).

Tested on: patient diagnosed as having depression
Experiment: Case of improvement of depressive symptoms by aspiration (or inhalation) of hydrogen
Type: in vivo, human
Details: for symptoms (depressive symptoms, anthropophobia, insomnia) under prescribed medication: patient, Abilify intramuscular injections, Lexotan Tablet 2 and Brotizolam Tablet taken together, before hydrogen
Text: A patient diagnosed as having depression, who had suffered from anthropophobia and insomnia along with depressive symptoms, received intramuscular injections of Abilify™ (Otsuka Pharmaceutical Co., Ltd. (Japan); with indication of depressive disorder) prescribed by a doctor at the department of psychiatry, and took Lexotan™ Tablet 2 (Chugai Pharmaceutical Co., Ltd. (Japan); with an indications of anxiety and tension associated with depressive disorder) and Brotizolam Tablet (Choseido Pharmaceutical Co., Ltd.; with indication of insomnia); however, the symptoms were not improved. Thus, hydrogen gas (70 to 140 ml/min) was aspirated for 1 hour once or twice a day using a hydrogen aspirator (MHG-2000α™ (MiZ Company Limited)) over about half a year while the medication was continued. As a result, the number of days on which it was possible to naturally fall asleep increased (2 or 3 days a week), and the liveliness of voice was enhanced. About half a year after the start of aspiration (or inhalation) of hydrogen gas, administration of the Brotizolam Tablet was discontinued, and the amount of hydrogen gas aspirated was increased (280 ml/min for 6 hours per day). The aspiration of hydrogen gas was continued over about 3 months. As a result, the depressive symptoms were improved, and therefore the use of Abilify and Lexotan Tablet 2 was discontinued on the basis of the doctor's judgement. […] After the use of Abilify and Lexotan Tablet 2, aspiration of hydrogen gas (280 ml/min for 6 hours per day) was continued.

[1] = hydrogen gas 280 ml/min for 6 hours per day continued after Abilify and Lexotan Tablet 2 were discontinued

`O=C1CCc2ccc(OCCCCN3CCN(c4cccc(Cl)c4Cl)CC3)cc2N1` [Abilify, aripiprazole, reference compound] was tested, and the “symptoms (depressive symptoms, anthropophobia, insomnia) under prescribed medication” value (“symptoms … under prescribed medication” below) was “not improved”.
`Cc1nnc2n1-c1sc(Br)cc1C(c1ccccc1Cl)=NC2` [Brotizolam Tablet, Brotizolam, reference compound] was tested, and the “symptoms … under prescribed medication” value was “not improved”.
`O=C1CN=C(c2ccccn2)c2cc(Br)ccc2N1` [Lexotan Tablet 2, bromazepam, reference compound] was tested, and the “symptoms … under prescribed medication” value was “not improved”.
`[HH]` [hydrogen gas, hydrogen] was tested, and the liveliness of voice (hydrogen gas 70 to 140 ml/min aspirated 1 hour once or twice a day over about half a year, medication continued) was “enhanced”, the “care personnel's evaluation of the patient” value [1] was “being much more cheerful in disposition than before” and the depressive symptoms [1] was “improved to the extent that the patient went outside more frequently than before, and enjoyed a life similar to a healthy person”. For the same compound, the depressive symptoms (hydrogen gas 280 ml/min for 6 hours per day over about 3 months, Brotizolam discontinued, Abilify and Lexotan continued) was “improved” and the “improving effect on depressive symptoms versus amount of hydrogen gas aspirated per day” value (same patient, 70 to 140 ml/min 1 hour once or twice a day versus 280 ml/min 6 hours per day) was “enhanced as the amount of hydrogen gas aspirated by the patient per day increases”.
